Source: patent publication US10765642B2, “Composition for preventing or treating muscle weakness-related diseases comprising sobrerol” (KOREA RESEARCH INSTITUTE OF BIOSCIENCE AND BIOTECHNOLOGY, priority 2015, dated 2020)

Assays:
[1] = test system: female C57BL/6 mice at the age of 21 months; assay: grip strength test in aged mice; type: in vivo; conditions: oral for 5 weeks; for fatigue (grip strength weakening) on repeated grip strength measurement: sobrerol 17.6 or 35.3 mg/kg, clenbuterol 2 mg/kg
Description: (§1) The grip strength was measured using a grip strength measuring device for mouse (BIOSEB) (FIG. 6). Specifically, the front limbs of the mice of the Example 3-1 were placed on a wire net attached to an instrument panel capable of monitoring the strength, and the strength to hold the wire net was measured while the tail was gripped and pulled downward. The test was repeated three times in succession.
(§2) Experiments were conducted to confirm whether sobrerol increases muscle strength in aged mice. Female C57BL/6 mice at the age of 21 months were adapted to the environment for 2 weeks and then orally administered with drugs for 5 weeks. Specifically, the negative control group was administered with water, the positive control group was administered with clenbuterol at a concentration of 2 mg/kg (mouse), and the sobrerol administration experimental group was orally administered with sobrerol at a concentration of 17.6 or 35.3 mg/kg (mouse). Then, locomotion tests (grip strength, treadmill) were conducted again to verify the effect.
The grip strength test is the same as the Example 3-2.

[2] = test system: tibialis anterior (TA) muscle fibers; assay: muscle fiber diameter (laminin immunofluorescence of tibialis anterior section) in aged mice; type: in vivo; conditions: aged mice fed with sobrerol
Description: In addition, after the exercise restriction in the Example 3-3, sections of the tibialis anterior (TA) were stained by immunofluorescence analysis using the antibodies against laminin, which is a protein existing at the periphery of muscle fibers, and the diameter of each muscle fiber was measured.
as §2
(§3) In addition, changes in the muscle size and the muscle weight of the aged mice by sobrerol were verified by the method of the Example 3-3.
(§4) In addition, as in the Example 3-3, the diameter of the muscle fiber of the tibialis anterior (TA) section was measured by immunofluorescence analysis using laminin antibodies.

[3] = test system: male C57BL/6 mice; assay: treadmill test after hind limb immobilization and remobilization; type: in vivo; conditions: immobilized mice
Description: A total of 45 male C57BL/6 mice at 5 weeks of age (Daehan BioLink) were used in this animal experiment. After 2 weeks of adaptation to the surrounding environment, sobrerol was orally administered twice daily since 7 weeks of age. The control group was administered with 200 μL of water/20 g of mouse, and sobrerol was orally administered at a ratio of 1:2:4 [8.8 mg/200 μL/20 g (mouse), 17.6 mg/200 μL/20 g (mouse) and 35.3 mg/200 μL/20 g (mouse)] to verify dose dependency. At 8 weeks of age, both hind limbs of the mice were immobilized for 10 days using a surgical stapler (Autosuture Royal 35W stapler). (A novel hindlimb immobilization procedure for studying skeletal muscle atrophy and recovery in mouse. J Appl Physiol 106: 2049-2059, 2009). After removing the surgical stapler, they were allowed to move again for 3 days (remobilization), and then exercise capability improvement-verification tests (treadmill, and grip tests) were conducted. The equipment shown in FIG. 8 was used for the treadmill test. The treadmill test was conducted as shown in FIG. 9 with reference to the treadmill protocol of used for the treadmill test (DOI 10.1016/j.cell.2006.11.013_Cell, Volume 127 Supplemental Data). One day prior to the treadmill test, the equipment was warmed up at a rate of 6 m/min for 10 minutes. At the starting point, electric stimulation was configured to flow so that the mice were forced to exercise. The next day, the test was started at a speed of 8 m/min and the speed was increased by 2 m/min every 20 minutes. One hour after the start of the treadmill test, the speed of 12 m/min was maintained, and the angle was increased by 5° and the electric stimulation was turned off. After 20 minutes, the angle of 5° was maintained but only the speed was increased by 2 m/min. Under the above condition, the running times of the mice were measured and recorded.

[4] = test system: aged mice; assay: treadmill test in aged mice after exercise restriction; type: in vivo; conditions: hind limbs immobilized 5 days then remobilization
Description: as §2
Both hind limbs of the mice were immobilized for 5 days using a surgical stapler (Autosuture Royal 35W stapler), and after removing the surgical stapler, they were allowed to move again (remobilization), and then exercise capability was evaluated by a treadmill test. As a result, the running time on the treadmill decreased after the exercise restriction as compared to that before the exercise restriction in the control group administered with distilled water, whereas the running time was not affected by exercise restriction in the experiment group administered with sobrerol (FIG. 17).

[5] = test system: myosin heavy chain protein; assay: immunofluorescence of myosin heavy chain protein in C2C12 myoblasts; type: cell-based; conditions: 0.1 μM sobrerol, 72 hours, differentiation medium
Description: Among the myogenic regulatory factors whose mRNA increased in the Example 2-1, experiments were conducted to verify the effect of sobrerol on the expression of myosin heavy chain. Specifically, the expression level of the myosin heavy chain protein was measured by immunofluorescence after treating the C2C12 myoblasts placed in the differentiation medium with 0.1 μM of sobrerol for 72 hours.

[6] = test system: MyoD; assay: qRT-PCR of myogenic regulatory factor mRNA in C2C12 myoblasts: MyoD; type: cell-based; conditions: 0.1 μM sobrerol, 48 hours, growth medium
Description: (§5) Experiments were conducted to verify the effect of sobrerol on mRNA of myogenic regulatory factor. Specifically, the myoblasts (C2C12 myoblast cells) placed in the growth medium were treated with 0.1 μM sobrerol for 48 hours, and then subjected to qRT-PCR to measure the levels of MyoD, myogenin, and myosin heavy chain (MyHC).

[7] = test system: female C57BL/6 mice at the age of 21 months; assay: muscle weight in aged mice; type: in vivo; conditions: 35.3 mg/kg
Description: as §2, §3, §4

[8] = test system: myosin heavy chain (MyHC); assay: qRT-PCR of myogenic regulatory factor mRNA in C2C12 myoblasts: myosin heavy chain; type: cell-based; conditions: 0.1 μM sobrerol, 48 hours, growth medium
Description: as §5

[9] = test system: myogenin; assay: qRT-PCR of myogenic regulatory factor mRNA in C2C12 myoblasts: myogenin; type: cell-based; conditions: 0.1 μM sobrerol, 48 hours, growth medium
Description: as §5

[10] = test system: female C57BL/6 mice at the age of 21 months; assay: treadmill test in aged mice; type: in vivo; conditions: 5 weeks
Description: One day prior to the treadmill test, the equipment was warmed up at a rate of 6 m/min for 10 minutes. At the starting point, electric stimulation was configured to flow so that the mice were forced to exercise. The next day, the test was started at a speed of 8 m/min and the speed was increased by 2 m/min every 20 minutes. One hour after the start of the treadmill test, the speed of 12 m/min was maintained, and the angle was increased by 5° and the electric stimulation was turned off. After 20 minutes, the angle of 5° was maintained but only the speed was increased by 2 m/min. Under the above condition, the running times of the mice were measured and recorded.
as §2
Tread mill test is the same as Example 3-3.

[11] = test system: male C57BL/6 mice; assay: muscle weight measurement after exercise restriction; type: in vivo; conditions: oral
Description: (§6) A total of 45 male C57BL/6 mice at 5 weeks of age (Daehan BioLink) were used in this animal experiment. After 2 weeks of adaptation to the surrounding environment, sobrerol was orally administered twice daily since 7 weeks of age. The control group was administered with 200 μL of water/20 g of mouse, and sobrerol was orally administered at a ratio of 1:2:4 [8.8 mg/200 μL/20 g (mouse), 17.6 mg/200 μL/20 g (mouse) and 35.3 mg/200 μL/20 g (mouse)] to verify dose dependency. At 8 weeks of age, both hind limbs of the mice were immobilized for 10 days using a surgical stapler (Autosuture Royal 35W stapler). (A novel hindlimb immobilization procedure for studying skeletal muscle atrophy and recovery in mouse. J Appl Physiol 106: 2049-2059, 2009). After removing the surgical stapler, they were allowed to move again for 3 days (remobilization), and then exercise capability improvement-verification tests (treadmill, and grip tests) were conducted. As a result, the diameters of the muscle fibers of the mice orally administered with sobrerol were larger than those of the control group orally administered with distilled water (FIG. 11).

[12] = test system: myogenin promoter; assay: secreted MyoG luciferase assay system (myogenin promoter-secreted luciferase C2C12 myoblast line); type: cell-based; conditions: for luciferase activity increase as compared to the negative control: negative control (MeOH) set at 1
Description: To evaluate the myoblast differentiation-promoting capability of sobrerol, a secreted MyoG luciferase assay system was used (FIG. 1). Specifically, the promoter portion of myogenin, which is a protein whose expression is increased upon myogenesis, was cloned into a secreted luciferase vector (pMetLuc2-Reporter Vector, Clontech), and then the vector was transfected into myoblasts C2C12 to prepare a myogenin promoter-secreted luciferase C2C12 myoblast line capable of stably expressing the luciferase enzyme The differentiation degree of the myoblasts into myotube cells can be quantitatively verified through the system in which the luciferase enzymes are secreted into the medium as the myogenin promoter is activated. To induce differentiation into muscle cells, DMEM (Dulbecco's Modified Eagle Medium, Invitrogen) medium supplemented with 2% horse serum was added to the C2C12 myoblasts. Herein, the expressed MEF2 and MyoD bind to the myogenin promoter, and then the luciferase enzymes are expressed and secreted out of the cell. Since the secreted luciferase enzymes are present in the medium, it can be measured to verify the degree of myogenesis. […] Specific experimental methods are as follows. On the first day, the C2C12 cells prepared in the Example 1-1 were inoculated into a 96-well plate containing DMEM medium supplemented with 10% bovine serum (FBS) at a concentration of 5×10^3 cells/well. In the morning of the second day, the medium of the well plate was replaced with DMEM medium (Growth medium, GM) supplemented with 10% bovine serum, which is the same component. In the afternoon, the medium (GM) was collected. Then, each well was treated with 100 μL of DMEM medium (differentiation medium 1, DM1) supplemented with 2% horse serum diluted with the sobrerol at each concentration. On the third day, the DM1 medium was collected, and the wells were treated with the same medium as in the second day (DM2). On the fourth day, the DM2 was collected. The media containing the luciferase secreted in the differentiation process of C2C12 cells were collected starting from the growth medium (GM) to the first day differentiation medium (DM1) and the second day differentiation medium (DM2) as described above, and 5 μL of coelenterazine as a substrate was added to 50 μL of the collected medium containing the luciferase enzyme, and the generated light was measured using a luminometer. The myogenesis-promoting capability of sobrerol at each concentration was measured through digitization by subtracting the measured values of DM0 from the measured values of DM1 and DM2. […] Ready-To-Glow™ Secreted Luciferase Reporter Systems (Clontech) was used as the luciferase assay kit, and the experiment was repeated three times.

[13] = test system: tibialis anterior (TA) muscle fibers; assay: muscle fiber diameter (laminin immunofluorescence of tibialis anterior sections) after exercise restriction; type: in vivo, mice; conditions: oral
Description: A total of 45 male C57BL/6 mice at 5 weeks of age (Daehan BioLink) were used in this animal experiment. After 2 weeks of adaptation to the surrounding environment, sobrerol was orally administered twice daily since 7 weeks of age. The control group was administered with 200 μL of water/20 g of mouse, and sobrerol was orally administered at a ratio of 1:2:4 [8.8 mg/200 μL/20 g (mouse), 17.6 mg/200 μL/20 g (mouse) and 35.3 mg/200 μL/20 g (mouse)] to verify dose dependency. At 8 weeks of age, both hind limbs of the mice were immobilized for 10 days using a surgical stapler (Autosuture Royal 35W stapler). (A novel hindlimb immobilization procedure for studying skeletal muscle atrophy and recovery in mouse. J Appl Physiol 106: 2049-2059, 2009). After removing the surgical stapler, they were allowed to move again for 3 days (remobilization), and then exercise capability improvement-verification tests (treadmill, and grip tests) were conducted. In addition, after the exercise restriction in the Example 3-3, sections of the tibialis anterior (TA) were stained by immunofluorescence analysis using the antibodies against laminin, which is a protein existing at the periphery of muscle fibers, and the diameter of each muscle fiber was measured.

[14] = test system: male C57BL/6 mice; assay: grip strength test after hind limb immobilization and remobilization; type: in vivo
Description: as §6, with “conducted.” for “conducted. As a result, the diameters of the muscle fibers of the mice orally administered with sobrerol were larger than those of the control group orally administered with distilled water (FIG. 11).”
as §1

Compound: CC(C)(C)NCC(O)c1cc(Cl)c(N)c(Cl)c1 (centres unmarked) [clenbuterol]
- fatigue (grip strength weakening) on repeated grip strength measurement [1]: did not show the increase in fatigue

Compound: CC1=CCC(C(C)(C)O)CC1O (centres unmarked) [sobrerol]
- diameters of the muscle fibers (tibialis anterior section) [2]: further increased
- treadmill running time versus group administered with distilled water ([3]; 8.8 mg/kg oral, still shorter than non-immobilization group): slightly longer
- treadmill running time versus non-immobilization group ([3]; 17.6 mg/kg oral): almost similar to the non-immobilization group
- treadmill running time versus non-immobilization group ([3]; 35.3 mg/kg oral): longer as compared to the non-immobilization group
- treadmill running time after exercise restriction versus before [4]: not affected
- myosin heavy chain protein fluorescence intensity versus DMSO group [5]: stronger
- MyoD mRNA increase [6]: 2 fold
- weights of the gastrocnemius (GA) [7]: increased to a significant level
- myosin heavy chain mRNA increase [8]: ≥ 25 fold
- myogenin mRNA increase [9]: 4 fold
- treadmill running time versus negative control group ([10]; 17.6 mg/kg oral): significantly longer
- treadmill running time versus negative control group ([10]; 35.3 mg/kg oral): longer running time than the negative control group
- first measured grip strength values, difference between groups [1]: no differences
- fatigue (grip strength weakening) on repeated grip strength measurement [1]: did not show the increase in fatigue
- weight of extensor digitorum longus (EDL) [11]: significantly increased
- weight of gastrocnemius (GA) [11]: significantly increased
- weight of soleus [11]: significantly increased
- weight of tibialis anterior (TA) [11]: significantly increased
- luciferase activity increase as compared to the negative control ([12]; 0.01 nM sobrerol, C2C12): ≥ 1.2 fold
- luciferase activity versus control group ([12]; 0.01 nM to 10 μM sobrerol, C2C12): higher luciferase activity than the control group
- luciferase activity increase as compared to the negative control ([12]; 0.1 nM sobrerol, C2C12): about 1.5 fold
- concentration with the greatest differentiation-promoting capability ([12]; C2C12 myogenin promoter luciferase): 0.1 nM
- diameters of the muscle fibers (tibialis anterior) versus distilled water control [13]: larger
- grip strength with higher concentration of sobrerol administered ([14]; oral 8.8, 17.6, 35.3 mg/kg, immobilized mice): increasing tendency
- grip strength measurement value ([14]; oral, twice daily, hind limbs immobilized 10 days, remobilization 3 days, negative control 3.5 N or less): ≥ 4.0 N
